Reference: patent US10059674B2, “Design, synthesis, and biological evaluation of 1-methyl-1, 4-dihyrdoindeno[1,2-C]pyrazole analogues as potential anticaner agents targeting tubulin colchicine binding site” (ACT PHARMA CO., LTD., priority 2016, dated 2018)
Where two headings read alike, the source gives them in different places.

How the values were obtained:
[1] = In vivo pharmacokinetic test, drug concentration in blood plasma by LC-MS/MS; set-up: species or system SD rats; settings: for Drug concentration in blood plasma / concentration at 0.25 h / concentration at 0.5 h / concentration at 1 h / concentration at 8 h / concentration at 24 h / concentration at 0.08 h / concentration at 2 h / concentration at 4 h: SD rats; for Drug concentration in blood plasma / concentration at 24 h: 24 h; for concentration at 0.25 h / concentration at 0.5 h / concentration at 1 h / concentration at 8 h / concentration at 24 h / concentration at 0.08 h / concentration at 2 h / concentration at 4 h / AUC(0-t) / Cmax / AUC(0-inf) / clearance / MRT inf / Vd / Vd/F: SD; for concentration at 0.25 h / concentration at 0.5 h / concentration at 1 h / concentration at 8 h / concentration at 24 h / concentration at 0.08 h / concentration at 2 h / concentration at 4 h / AUC(0-t) / Cmax / AUC(0-inf) / clearance / MRT inf / Vd / Vd/F / Tmax: rat, plasma; for HL_Lambda_z / Cl—F—pred / F / AUC(0-t) / Cmax / AUC(0-inf) / clearance / MRT inf / Vd / Vd/F / Tmax: male SD rats; for AUC(0-inf): read-out: AUCINF—pred; for clearance: read-out: Cl—pred (converted); for MRT inf: read-out: MRTINF—pred; for Vd: read-out: Vz—pred; for Vd/F: read-out: Vz—F—pred
Description: 2. Test animal: SD rats, which are 284-304 g before the test, and bought from Shanghai Xipuer-Bikai laboratory animal Co., Ltd. with production license No. SCXK (Hu) 2013-0016, and laboratory animal certificate Nos. 2008001658223 and 2008001658296.
2.85 mg of compound LL-01 is weighed, and then put into a glass bottle; 0.687 mL of DMSO is added into the glass bottle, and ultrasonic treatment is carried out for 2 min; next, 2.062 mL of Solutol HS 15 is added thereto, and ultrasonic treatment is carried out for 4 min; and then 10.995 mL of PBS is added thereto, and ultrasonic treatment is carried out for 8 min after eddying. This test substance is numbered 20160324-RW-01, 12.74 mg of compound LL-01 is weighed, and then put into a glass bottle; 0.614 mL of DMSO is added into the glass bottle, and ultrasonic treatment is carried out for 2 min; next, 1.843 mL of Solutol HS 15 is added thereto, and ultrasonic treatment is carried out for 4 min; and then 9.830 mL of PBS is added thereto, and ultrasonic treatment is carried out for 8 min after eddying. This test substance is numbered 20160324-RW-02,
The dosage of intravenous administration is 1 mg/kg, while the dosage of oral administration is 10 mg/kg. A night of fasting is required before administration, and feeding should be carried out 4 hours later after administration.
Blood is collected (about 150-200 uL) at every time points of 0.083 (only vein), 0.25, 0.5, 1, 2, 4, 8, and 24 hours after administration through orbital venous plexus puncture into EDTA-K2 (20%, and 2 μL) anticoagulant tubes, respectively; the blood samples are centrifuged 8 min at 6000 rpm in 1 h (placed on wet ice before being centrifuged), and the supernatant, namely blood plasma is put into −20° C. low-temperature conservation for LC-MS/MS analysis later.
The content of compound LL-01 in SD rat blood plasma is detected by use of LC-MS/MS method.
Computer program Microsoft Office Excel 2007 (Microsoft, USA) is used for data processing, and drawing. A statistical moment method of WinNolin 6.4 processing software is used to calculate pharmacokinetic parameters.

[2] = Liver microsomal metabolism stability test; settings: for Remainder: mouse liver microsomes
[3] = po, 10 mg/kg, oral 10 mg/kg, Mean
[4] = po, 10 mg/kg, oral 10 mg/kg, animal 201M
[5] = po, 10 mg/kg, oral 10 mg/kg, animal 202M
[6] = po, 10 mg/kg, oral 10 mg/kg, animal 203M
[7] = single intravenous 1 mg/kg, animal 101M
[8] = single oral 10 mg/kg, animal 201M
[9] = single oral 10 mg/kg, animal 202M
[10] = single oral 10 mg/kg, animal 203M
[11] = male, iv, 1 mg/kg, intravenous 1 mg/kg, Mean
[12] = male, iv, 1 mg/kg, intravenous 1 mg/kg, animal 101M
[13] = male, iv, 1 mg/kg, intravenous 1 mg/kg, animal 102M
[14] = male, iv, 1 mg/kg, intravenous 1 mg/kg, animal 103M
[15] = male, iv, 1 mg/kg, single intravenous 1 mg/kg, Mean
[16] = male, iv, 1 mg/kg, single intravenous 1 mg/kg, animal 101M
[17] = male, iv, 1 mg/kg, single intravenous 1 mg/kg, animal 102M
[18] = male, iv, 1 mg/kg, single intravenous 1 mg/kg, animal 103M
[19] = male, po, 10 mg/kg, oral 10 mg/kg, Mean
[20] = male, po, 10 mg/kg, oral 10 mg/kg, animal 201M
[21] = male, po, 10 mg/kg, oral 10 mg/kg, animal 202M
[22] = male, po, 10 mg/kg, oral 10 mg/kg, animal 203M
[23] = male, po, 10 mg/kg, single oral 10 mg/kg, Mean
[24] = male, po, 10 mg/kg, single oral 10 mg/kg, animal 201M
[25] = male, po, 10 mg/kg, single oral 10 mg/kg, animal 202M
[26] = male, po, 10 mg/kg, single oral 10 mg/kg, animal 203M

With CCOc1cccc(Nc2nn(C)c3c2Cc2cc(OCC)c(OCC(N)=O)cc2-3)c1 [LL-01] the “Drug concentration in blood plasma” value ([1]; intravenous 1 mg/kg, animal 101M) was “BLQ”, the “Drug concentration in blood plasma” value ([1]; intravenous 1 mg/kg, animal 102M) was “BLQ” and the “Drug concentration in blood plasma” value ([1]; intravenous 1 mg/kg, animal 103M) was “BLQ”. It also gave a concentration at 0.25 h [1, 3] of 280 ng/mL, a concentration at 0.25 h [1, 4] of 159 ng/mL and a concentration at 0.25 h [1, 5] of 466 ng/mL. For the same compound, the concentration at 0.25 h [1, 6] was 216 ng/mL, the concentration at 0.5 h [1, 3] was 558 ng/mL and the concentration at 0.5 h [1, 4] was 374 ng/mL. For the same compound, the concentration at 0.5 h [1, 5] was 959 ng/mL, the concentration at 0.5 h [1, 6] was 339 ng/mL and the concentration at 1 h [1, 3] was 917 ng/mL. The concentration at 1 h [1, 4] was 869 ng/mL, the concentration at 1 h [1, 5] was 1100 ng/mL and the concentration at 1 h [1, 6] was 778 ng/mL. For the same compound, the concentration at 8 h [1, 3] was 604 ng/mL, the concentration at 8 h [1, 5] was 916 ng/mL and the concentration at 8 h [1, 6] was 446 ng/mL. For the same compound, the concentration at 24 h [1, 3] was 26.9 ng/mL, the concentration at 24 h [1, 4] was 46.8 ng/mL and the concentration at 24 h [1, 5] was 17.4 ng/mL. For the same compound, the concentration at 24 h [1, 6] was 16.6 ng/mL, the HL_Lambda_z ([1]; single intravenous 1 mg/kg, Mean) was 1.00 h and the HL_Lambda_z [1, 7] was 1.06 h. The HL_Lambda_z ([1]; single intravenous 1 mg/kg, animal 102M) was 1.00 h, the HL_Lambda_z ([1]; single intravenous 1 mg/kg, animal 103M) was 0.94 h and the “Cl—F—pred” value ([1]; single oral 10 mg/kg, Mean) was 14.3 mL/min/kg. For the same compound, the F ([1]; single oral 10 mg/kg, Mean) was 41.02%, the HL_Lambda_z ([1]; single oral 10 mg/kg, Mean) was 3.60 h and the “Cl—F—pred” value [1, 8] was 15.2 mL/min/kg. The F [1, 8] was 35.12%, the HL_Lambda_z [1, 8] was 4.35 h and the “Cl—F—pred” value [1, 9] was 9.33 mL/min/kg. For the same compound, the F [1, 9] was 58.28%, the HL_Lambda_z [1, 9] was 2.95 h and the “Cl—F—pred” value [1, 10] was 18.3 mL/min/kg. The F [1, 10] was 29.66%, the HL_Lambda_z [1, 10] was 3.50 h and the concentration at 0.08 h [1, 11] was 2600 ng/mL. It also gave a concentration at 0.08 h [1, 12] of 2720 ng/mL, a concentration at 0.08 h [1, 13] of 2400 ng/mL and a concentration at 0.08 h [1, 14] of 2690 ng/mL. For the same compound, the concentration at 0.25 h [1, 11] was 1950 ng/mL, the concentration at 0.25 h [1, 12] was 2020 ng/mL and the concentration at 0.25 h [1, 13] was 1920 ng/mL. It also gave a concentration at 0.25 h [1, 14] of 1910 ng/mL, a concentration at 0.5 h [1, 11] of 1630 ng/mL and a concentration at 0.5 h [1, 12] of 1760 ng/mL. The concentration at 0.5 h [1, 13] was 1390 ng/mL, the concentration at 0.5 h [1, 14] was 1720 ng/mL and the concentration at 1 h [1, 11] was 884 ng/mL. For the same compound, the concentration at 1 h [1, 12] was 876 ng/mL, the concentration at 1 h [1, 13] was 842 ng/mL and the concentration at 1 h [1, 14] was 934 ng/mL. It also gave a concentration at 2 h [1, 11] of 428 ng/mL, a concentration at 2 h [1, 12] of 398 ng/mL and a concentration at 2 h [1, 13] of 372 ng/mL. It also gave a concentration at 2 h [1, 14] of 512 ng/mL, a concentration at 4 h [1, 11] of 82.5 ng/mL and a concentration at 4 h [1, 12] of 87.6 ng/mL. It also gave a concentration at 4 h [1, 13] of 67.1 ng/mL, a concentration at 4 h [1, 14] of 92.8 ng/mL and a concentration at 8 h [1, 11] of 7.8 ng/mL. The concentration at 8 h [1, 12] was 8.6 ng/mL, the concentration at 8 h [1, 13] was 9.1 ng/mL and the concentration at 8 h [1, 14] was 5.6 ng/mL. For the same compound, the AUC(0-t) [1, 15] was 3030 ng·h/mL, the Cmax [1, 15] was 2600 ng/mL and the AUC(0-inf) [1, 15] was 3040 ng·h/mL. It also gave a clearance [1, 15] of 5.5 mL/min/kg, an MRT inf [1, 15] of 1.18 h and a Vd [1, 15] of 0.48 L/kg. For the same compound, the AUC(0-t) [1, 16] was 3090 ng·h/mL, the Cmax [1, 16] was 2720 ng/mL and the AUC(0-inf) [1, 16] was 3100 ng·h/mL. It also gave a clearance [1, 16] of 5.33 mL/min/kg, an MRT inf [1, 16] of 1.17 h and a Vd [1, 16] of 0.49 L/kg. For the same compound, the AUC(0-t) [1, 17] was 2740 ng·h/mL, the Cmax [1, 17] was 2400 ng/mL and the AUC(0-inf) [1, 17] was 2750 ng·h/mL. For the same compound, the clearance [1, 17] was 6 mL/min/kg, the MRT inf [1, 17] was 1.16 h and the Vd [1, 17] was 0.53 L/kg. The AUC(0-t) [1, 18] was 3270 ng·h/mL, the Cmax [1, 18] was 2690 ng/mL and the AUC(0-inf) [1, 18] was 3280 ng·h/mL. The clearance [1, 18] was 5 mL/min/kg, the MRT inf [1, 18] was 1.21 h and the Vd [1, 18] was 0.41 L/kg. For the same compound, the concentration at 2 h [1, 19] was 920 ng/mL, the concentration at 2 h [1, 20] was 675 ng/mL and the concentration at 2 h [1, 21] was 1280 ng/mL. For the same compound, the concentration at 2 h [1, 22] was 801 ng/mL, the concentration at 4 h [1, 19] was 1280 ng/mL and the concentration at 4 h [1, 20] was 1310 ng/mL. It also gave a concentration at 4 h [1, 21] of 1720 ng/mL, a concentration at 4 h [1, 22] of 814 ng/mL and a concentration at 8 h [1, 20] of 451 ng/mL. It also gave an AUC(0-t) [1, 23] of 12400 ng·h/mL, a Cmax [1, 23] of 1280 ng/mL and an AUC(0-inf) [1, 23] of 12600 ng·h/mL. For the same compound, the MRT inf [1, 23] was 6.14 h, the Vd/F [1, 23] was 4.57 L/kg and the AUC(0-t) [1, 24] was 10700 ng·h/mL. For the same compound, the Cmax [1, 24] was 1310 ng/mL, the AUC(0-inf) [1, 24] was 10900 ng·h/mL and the MRT inf [1, 24] was 6.58 h. The Vd/F [1, 24] was 5.74 L/kg, the AUC(0-t) [1, 25] was 17700 ng·h/mL and the Cmax [1, 25] was 1720 ng/mL. For the same compound, the AUC(0-inf) [1, 25] was 17800 ng·h/mL, the MRT inf [1, 25] was 5.87 h and the Vd/F [1, 25] was 2.4 L/kg. It also gave an AUC(0-t) [1, 26] of 9000 ng·h/mL, a Cmax [1, 26] of 814 ng/mL and an AUC(0-inf) [1, 26] of 9080 ng·h/mL. The MRT inf [1, 26] was 5.96 h, the Vd/F [1, 26] was 5.57 L/kg and the Tmax [1, 7] was 0.08 h. For the same compound, the Tmax [1, 8] was 4 h, the “metabolism in the liver microsomes (in words)” value ([2]; mouse) was “moderate” and the Remainder ([2]; incubation time 0 min) was 100.00%. It also gave a Remainder ([2]; incubation time 10 min) of 87.76%, a Remainder ([2]; incubation time 30 min) of 63.76% and a Remainder ([2]; incubation time 90 min) of 32.23%.
